| SMILES | melting point [°C] |
| --- | --- |
| CC(Cn1nnc2ccccc21)(NC(=O)OC1C2CC3CC(C2)CC1C3)C(=O)NCCc1ccccc1 (centres undefined) | 180 to 185 |
| CCCC(C)(Oc1ccc(CC(=O)Nc2cc(C)cc(C)c2)cc1)C(=O)O (centres undefined) | 145 to 147 |
| CCCCCCNC(=O)Nc1ccccc1C(=O)NCC1CCN(C(c2ccccc2)c2ccccc2)CC1 | 168 to 169 |
| CCOCc1nc2c(N)nc3cc(O)ccc3c2n1CC(C)(C)NC(=O)NC(C)C | 163 to 168 |
| C[C@H]1[C@@H](CO)CCN1c1ccc(C#N)c2ccccc12 | 158 to 159 |
| FC(F)(F)c1nc(Cl)c(Cl)[nH]1 | 186 to 188 |
| Oc1ccc2nc(-c3cccc4ccccc34)oc2c1 | 185 to 187 |
| COc1ccc(OC)c(C(=O)c2oc3ccccc3c2O)c1 | 158 |
| N=C(Cc1ccc(F)cc1)Nc1ncccc1OCc1ccccc1 | 86 to 93 |
| CC(C)(C)OC(=O)C(=NOC(C)(C)C(=O)OCC[Si](C)(C)C)c1csc(N)n1 | 83 |
| CN(C)C=C(Cc1ccccc1)C(=O)c1cccnc1Cl | 115 to 120 |
| COc1nc(C)cnc1NS(=O)(=O)c1cccnc1-c1ccc(OC(C)(C)CO)cc1 | 182 to 184 |
| CC1=NC(NC(=O)Nc2cccc(C)c2)C(=O)N(CC(=O)N2CCC(N3CCCCC3)CC2)c2c(C)cccc21 (centres undefined) | 214 to 217 |
| Cc1ccc2[nH]cc(C3=C(c4c[nH]c5ccc(C)cc45)C(=O)N(C)C3=O)c2c1 | 270 to 275 |
| COc1ccc(Cn2cc3nc(Nc4ccc(C(F)(F)F)cc4Cl)nc(OCc4ccccc4)c3n2)cc1 | 189 to 192 |
| COc1ccc(S(=O)(=O)c2cc(O)c(O)cc2C)cc1NC(C)=O | 230 to 232 |
| C=CCN(CC=C)Cc1noc(-c2ncn3c2[C@@H]2CCN2C(=O)c2c-3cccc2C(F)(F)F)n1 | 147 to 150 |
| O=C(Nc1nc(C(Cl)(Cl)Cl)ns1)c1ccc([N+](=O)[O-])cc1 | 214 |
| Cc1cc(OCC(=O)O)cc(C)c1SCc1sc(-c2ccc(C(F)(F)F)cc2)nc1C | 184 to 185 |
| FC(F)(F)c1cc(C2CN(Cc3ccccc3)CO2)c2cccc(C(F)(F)F)c2n1 (centres undefined) | 108 to 109 |
| CC(CC#N)C(C#N)(c1ccc(N2CCOCC2)c([N+](=O)[O-])c1)N1CCOCC1 (centres undefined) | 175 to 177 |
| CCOCCc1c(-c2ccccc2)n2nnnc2n2ncnc12 | 114 |
| O=C(c1ccc(Cl)cc1)c1cccc2c1CCC2C(=O)O (centres undefined) | 137 to 139 |

| SMILES | melting point [°C] |
| --- | --- |
| O=C1NC(=O)C(Cc2ccc(OCCON=Cc3cccc(-c4ccccc4)c3)cc2)S1 (centres undefined) | 128 |
| O=C(O)Cc1cccc(Oc2ccccc2F)c1[N+](=O)[O-] | 144 to 146 |
| COc1cc(C2CCN(C(=O)CN)CC2)ccc1Nc1ncc2ccc(-c3ccccc3OC)n2n1 | 86 to 99 |
| O=C1C=NC(c2cccs2)(C(F)(F)F)O1 (centres undefined) | 62 to 65 |
| CCC1c2c(ncn2CC)CCN1C(=O)NC(C)C (centres undefined) | 155 |
| O=C(O)c1cc([N+](=O)[O-])ccc1OC(F)(F)F | 134 to 135 |
| COc1ccc2cc([C@H](C)C(=O)OCC(CO)(CO)[N+](=O)[O-])ccc2c1 | 124 to 126 |
| CCOC(=O)Cc1cc(O)ccc1CCc1cc2cc(C#N)ccc2o1 | 84 to 86 |
| CSc1nn2c(N(C)C)cc(C)nc2c1S(=O)(=O)c1ccc(C)cc1 | > 230 |
| N=C(N)c1ccc(-c2ccc(Nc3ccc(CCC(=O)O)cc3)nn2)cc1 | > 260 |
| Cc1cc(-c2nc3cccnn3c2-c2ccnc(NC(=O)CCS(C)(=O)=O)c2)ccc1F | 227 to 228 |
| CCCN(CCC)CCCOc1ccc(-c2noc(-c3ccccc3)n2)cc1 | 55 to 57 |
| COc1ccc(OC)c(S(=O)(=O)n2c(COC(C)(C)C(=O)O)cc3nc(Cl)ccc32)c1 | 200 |
| O=C1c2ccccc2C(O)N1CCCO[N+](=O)[O-] (centres undefined) | 72 to 74 |
| COc1cc2[nH]c(=O)n(S(=O)(=O)c3ccc(Cl)cc3)c(=O)c2cc1OC | > 250 |
| COc1ccc(C(=O)N[C@H]2CCN(C)C[C@H]2c2ccccc2)cc1 (relative stereo) | 165 to 166 |
| COc1nc2c(S(=O)(=O)c3ccccc3)c(SC)nn2c(N2CCN(C)CC2)c1C | 207 to 208 |
| CC1(C)CCC(C)(C)c2c(OCc3ccc(C(F)(F)F)cc3)cc(C(O)C#Cc3ccc(C(=O)O)cc3)cc21 (centres undefined) | 222 |
| NC(=S)C1CCCc2cccnc21 (centres undefined) | 160 |
| COc1cc2c(cc1-c1c(C)nn(C)c1C)-c1c(-c3cccs3)c3c(n1CC2)C(=O)N(C(C)C)CCN(C(=O)C(C)C)C3 | 232 to 235 |
| CCC(C)OC(=O)C(C(=O)Nc1nc(C)cs1)=C1SCS1 (centres undefined) | 153 to 154 |
| CC1=C(S(C)(=O)=O)C(c2ccccc2[N+](=O)[O-])C(C(=O)OC2CCCC2)=C(N=CN(C)C)N1 (centres undefined) | 175 |
| CON(C)CCN1C(=O)c2ccccc2C1=O | 130 to 132 |

| SMILES | melting point [°C] |
| --- | --- |
| COC(=O)c1cc(CBr)ccc1[N+](=O)[O-] | 55 to 56 |
| CC1(C)CCC(C)(C)c2cc(NC(=O)c3ccc(C=O)cc3)ccc21 | 186 |
| COc1ccc2c(c1)SC(C#N)C(=O)CO2 (centres undefined) | 132 to 133 |
| O=C(CCc1ccc([N+](=O)[O-])cc1)NCCO | 122 to 125 |
| Cc1nc(-c2ccc(O)c(C)c2O)no1 | 224 to 225 |
| Cc1ccc(NCCSC#N)c([N+](=O)[O-])c1 | 123 to 125 |
| CCOc1ccc(-c2ccc(Cl)nn2)c(OCC2CO2)c1 (centres undefined) | 93 to 94 |
| CC(=O)C(=[N+]=[N-])S(=O)(=O)C(C)C | 53 to 55 |
| CCC(C1=C(C)C(=O)C(C)=C(C)C1=O)c1ccc(C(C)C)cc1 (centres undefined) | 61 to 63 |
| COc1ccc2oc(C(=O)c3cccnc3N3CCOCC3)cc2c1 | 85 to 88 |
| CCC(CC)Oc1cc(C)nc(Nc2c(C)cc(C)cc2C)c1N | 73 to 75 |
| COc1ccc2c(c1)C13CCN(C)C(C2)C1OC(C)(C)OC3 (centres undefined) | 132 to 133 |
| CCC(NC(=S)NCc1ccc(C(C)(C)C)cc1)c1ccc(NS(C)(=O)=O)c(F)c1 (centres undefined) | 85 |
| CN(C)C(=O)[C@@H]1C[C@H]1C(=O)c1c[nH]c2ccc(F)cc12 (relative stereo) | 239 to 241 |
| OC12CC3CC(O)(C1)CC(O)(C3)C2 | 217 |
| O=S(=O)(NCC(O)(Cn1cncn1)c1ccc(F)cc1F)c1ccc(C(F)(F)F)cc1 (centres undefined) | 161 to 162 |
| CCCCC(=NNC(=O)OCC)c1ccncc1 | 102 |
| CNc1nc(-c2cccc(NC(=O)c3ccc(S(C)=O)cc3)c2)c2cc(OC)c(OC)cc2n1 (centres undefined) | 246 to 248 |
| CCOc1nc2cccc(C(=O)O)c2n1Cc1ccc(-c2ccccc2C(=O)O)cc1 | 213 to 215 |
| CC(C)(C)c1cc(-n2nc3ccc(Cl)cc3n2)c(O)c(C(C)(C)C)c1 | 151 to 154 |
| N#Cc1cccc2c1C(=O)C(OCc1ccccc1)=C(OCc1ccccc1)C2=O | 118 to 121 |
| CC(C)(C)OC(=O)Nc1ccc(C#Cc2ccccc2)cc1N | 177 to 178 |
| COc1ccc(Cn2c(=O)nc(C3CC3)c3cc(-c4cccc(Cl)c4)ccc32)cc1 | 173 to 174 |

Source: a melting point compilation (Tetko et al.; mined from patent text by program, amines drawn as free bases though some values may be those of a salt)
